From PubChem BioAssay AID2060599 (Molecular Pharmacology Branch, DTP, NCI, 2025)
“And” between values parts separate entries of the source, which are not always exact repeats. Equal entries are not always repeated. Blank lines part the entries; values can stand above or below the compound they belong to.

Tested on: 817829-284-R-J1-PDC complex spheroids, viability
Assay: Anticancer human tumor 817829-284-R-J1-PDC patient-derived colon adenocarcinoma cell line growth inhibition [CLK]
Details: for viability, T/C: stronger effect = lower value
Summary of the method: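 Patient-derived tumor cells grown as complex spheroids with HUVEC endothelial cells and mesenchymal stem cells, treated with drug combinations. Concentrations descend in half-log steps from near clinical Cmax, or from 10 microM if Cmax unknown.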

[1] = curve of first compound, second compound 0.0316 µM
[2] = curve of first compound, second compound 0.1 µM
[3] = curve of first compound, second compound 0.316 µM
[4] = curve of first compound, second compound 1 µM
[5] = curve of first compound, second compound 3.16 µM
[6] = curve of first compound, second compound 10 µM
[7] = second compound 0.0316 µM, first compound 0.0316 µM
[8] = second compound 0.0316 µM, first compound 0.1 µM
[9] = second compound 0.0316 µM, first compound 0.316 µM
[10] = second compound 0.0316 µM, first compound 1 µM
[11] = second compound 0.0316 µM, first compound 3.16 µM
[12] = second compound 0.0316 µM, first compound 10 µM
[13] = second compound 0.1 µM, first compound 0.0316 µM
[14] = second compound 0.1 µM, first compound 0.1 µM
[15] = second compound 0.1 µM, first compound 0.316 µM
[16] = second compound 0.1 µM, first compound 1 µM
[17] = second compound 0.1 µM, first compound 3.16 µM
[18] = second compound 0.1 µM, first compound 10 µM
[19] = second compound 0.316 µM, first compound 0.0316 µM
[20] = second compound 0.316 µM, first compound 0.1 µM
[21] = second compound 0.316 µM, first compound 0.316 µM
[22] = second compound 0.316 µM, first compound 1 µM
[23] = second compound 0.316 µM, first compound 3.16 µM
[24] = second compound 0.316 µM, first compound 10 µM
[25] = second compound 1 µM, first compound 0.0316 µM
[26] = second compound 1 µM, first compound 0.1 µM
[27] = second compound 1 µM, first compound 0.316 µM
[28] = second compound 1 µM, first compound 1 µM
[29] = second compound 1 µM, first compound 3.16 µM
[30] = second compound 1 µM, first compound 10 µM
[31] = second compound 3.16 µM, first compound 0.0316 µM
[32] = second compound 3.16 µM, first compound 0.1 µM
[33] = second compound 3.16 µM, first compound 0.316 µM
[34] = second compound 3.16 µM, first compound 1 µM
[35] = second compound 3.16 µM, first compound 3.16 µM
[36] = second compound 3.16 µM, first compound 10 µM
[37] = second compound 10 µM, first compound 0.0316 µM
[38] = second compound 10 µM, first compound 0.1 µM
[39] = second compound 10 µM, first compound 0.316 µM
[40] = second compound 10 µM, first compound 1 µM
[41] = second compound 10 µM, first compound 3.16 µM
[42] = second compound 10 µM, first compound 10 µM
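Note: spheroids exposed to the agents for seven days before readout.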

Compound: CCCS(=O)(=O)Nc1ccc(F)c(C(=O)c2c[nH]c3ncc(-c4ccc(Cl)cc4)cc23)c1F + CN1CCN(c2cc(C(=O)Nc3cc4cc(-c5cnn(C)c5)ccc4cn3)ccn2)CC1
IC50 [1]: < 31.6 nM | IC50 [2]: < 31.6 nM | IC50 [3]: < 31.6 nM | IC50 [4]: < 31.6 nM | IC50 [5]: < 31.6 nM | IC50 [6]: < 31.6 nM | viability, T/C [7]: 53.5% | viability, T/C [8]: 41.8% | viability, T/C [9]: 39.8% | viability, T/C [10]: 43.8% | viability, T/C [11]: 35.6% | viability, T/C [12]: 18.4% | viability, T/C [13]: 19% | viability, T/C [14]: 17.5% | viability, T/C [15]: 14.2% | viability, T/C [16]: 11.8% | viability, T/C [17]: 12.2% | viability, T/C [18]: 3.08% | viability, T/C [19]: 1.39% | viability, T/C [20]: 1.67% | viability, T/C [21]: 1.88% | viability, T/C [22]: 1.17% | viability, T/C [23]: 1.2% | viability, T/C [24]: 0.66% | viability, T/C [25]: 0.09% | viability, T/C [26]: 0.11% | viability, T/C [27]: 0.15% | viability, T/C [28]: 0.09% | viability, T/C [29]: 0.09% | viability, T/C [30]: 0.08% | viability, T/C [31]: 0.09% | viability, T/C [32]: 0.18% | viability, T/C [33]: 0.1% | viability, T/C [34]: 0.2% | viability, T/C [35]: 0.13% | viability, T/C [36]: 0.09% | viability, T/C [37]: 0.06% | viability, T/C [38]: 0.08% | viability, T/C [39]: 0.1% | viability, T/C [40]: 0.18% | viability, T/C [41]: 0.21% | viability, T/C [42]: 0.17%

IC50 (curve of compound): < 3.16 nM
Compound: CCc1c2c(nc3ccc(O)cc13)-c1cc3c(c(=O)n1C2)COC(=O)[C@]3(O)CC
viability, T/C (compound 0.00316 µM): 23.1% and 29.4% | viability, T/C (compound 0.01 µM): 17.5% and 16.5% | viability, T/C (compound 0.0316 µM): 13.9% and 16.5% | viability, T/C (compound 0.1 µM): 9.42% and 10.3% | viability, T/C (compound 0.316 µM): 6.24% and 7.57% | viability, T/C (compound 1 µM): 3.66% and 4.31%

IC50 (curve of compound): 626 nM
Compound: CC1COCCN1c1cc(C2(S(C)(=N)=O)CC2)nc(-c2ccnc3[nH]ccc23)n1 (stereo not drawn)
viability, T/C (compound 0.0316 µM): 63.5% | viability, T/C (compound 0.1 µM): 99.9% | viability, T/C (compound 0.316 µM): 62.4% | viability, T/C (compound 1 µM): 39% | viability, T/C (compound 3.16 µM): 9.17% | viability, T/C (compound 10 µM): 4.99%

Compound: Nc1ccccc1NC(=O)c1ccc(CNC(=O)OCc2cccnc2)cc1 + CN1CCN(c2cc(C(=O)Nc3cc4cc(-c5cnn(C)c5)ccc4cn3)ccn2)CC1
IC50 [1]: 223 nM | IC50 [2]: < 31.6 nM | IC50 [3]: < 31.6 nM | IC50 [4]: < 31.6 nM | IC50 [5]: < 31.6 nM | IC50 [6]: < 31.6 nM | viability, T/C [7]: 61.1% | viability, T/C [8]: 70.6% | viability, T/C [9]: 39.5% | viability, T/C [10]: 21.9% | viability, T/C [11]: 3.59% | viability, T/C [12]: 0.06% | viability, T/C [13]: 15.1% | viability, T/C [14]: 14.2% | viability, T/C [15]: 13.4% | viability, T/C [16]: 5.61% | viability, T/C [17]: 0.84% | viability, T/C [18]: 0.03% | viability, T/C [19]: 1.55% | viability, T/C [20]: 1.54% | viability, T/C [21]: 1.41% | viability, T/C [22]: 0.56% | viability, T/C [23]: 0.03% | viability, T/C [24]: 0.03% | viability, T/C [25]: 0.11% | viability, T/C [26]: 0.14% | viability, T/C [27]: 0.11% | viability, T/C [28]: 0.1% | viability, T/C [29]: 0.05% | viability, T/C [30]: 0.06% | viability, T/C [31]: 0.1% | viability, T/C [32]: 0.12% | viability, T/C [33]: 0.15% | viability, T/C [34]: 0.15% | viability, T/C [35]: 0.16% | viability, T/C [36]: 0.22% | viability, T/C [37]: 0.04% | viability, T/C [38]: 0.07% | viability, T/C [39]: 0.1% | viability, T/C [40]: 0.3% | viability, T/C [41]: 0.1% | viability, T/C [42]: 0.1%
